Drawing on US11407736B2 (priority 2019, dated 2022), this text covers IC50 for 19 compounds.

One test deals with U937 cells. Put plainly: U937 cell necroptosis assay (TNFa + zVAD, CellTiter-Glo). Type of test: cell-based, human. The procedure, abridged: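 Human U937 and murine L929 cells in RPMI 1640/10% FBS were pre-incubated 1 h at 37 °C with serially diluted compound plus zVAD-fmk (U937 plated with 60 uM, L929 medium with 40 uM), then stimulated with 2 ng/mL TNFa (final). Viability read by CellTiter-Glo luminescence after 18 h.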
In general terms: In ATP-based viability assays light output follows the ATP content of the culture.

The next test relates to L929 cells. Put plainly: L929 cell necroptosis assay (TNFa + zVAD, CellTiter-Glo). Type of test: cell-based, murine. The procedure, abridged: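 Murine L929 cells, plated 18 h beforehand at 10K cells/well in RPMI 1640 with 10% FBS, were switched to medium containing 40 uM zVAD-fmk and given compound from 4-fold serial dilutions. Viability after 18 h of TNFa stimulation at 37° C was read by CellTiter-Glo luminescence.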

The next test addresses RIPK1 (Homo sapiens (Human), UniProt Q13546). As to the kind of experiment: RIPK1 ADP-Glo biochemical kinase assay. To be noted: read-out: RIPK1 ADP-Glo Kinase (IC50). The protocol:
The final reaction volume was 5.0ul.
Adding 5 μl of ADP-Glo™ terminated the reaction.

[1] abbreviates: Homo sapiens, U-937, read-out: U937 Zvad TNF CTG Recovery, U937, TNFa + zVAD (IC50), U937 cells, TNFa + zVAD.
Where [2] appears, read: Mus musculus, L929, read-out: L929-CTG-recovery, L929, TNFa + zVAD (IC50), L929 cells, TNFa + zVAD.
[3] abbreviates: Homo sapiens, U-937, U937 cells, TNFa + zVAD, read-out: U937 Zvad TNF CTG Recovery, U937, TNFa + zVAD (IC50).
Setting [4] is: Mus musculus, L929 cells, TNFa + zVAD, read-out: L929-CTG-recovery, L929, TNFa + zVAD (IC50).
The mark [5] stands for this setting: Mus musculus, L929, L929 cells, TNFa + zVAD, read-out: L929-CTG-recovery, L929, TNFa + zVAD (IC50).

Where a name gives a salt, the structure may show the parent alone. Read-outs that look alike come from different tables or passages of the source.

Sequence of RIPK1 (Q13546 whole entry, species assumed): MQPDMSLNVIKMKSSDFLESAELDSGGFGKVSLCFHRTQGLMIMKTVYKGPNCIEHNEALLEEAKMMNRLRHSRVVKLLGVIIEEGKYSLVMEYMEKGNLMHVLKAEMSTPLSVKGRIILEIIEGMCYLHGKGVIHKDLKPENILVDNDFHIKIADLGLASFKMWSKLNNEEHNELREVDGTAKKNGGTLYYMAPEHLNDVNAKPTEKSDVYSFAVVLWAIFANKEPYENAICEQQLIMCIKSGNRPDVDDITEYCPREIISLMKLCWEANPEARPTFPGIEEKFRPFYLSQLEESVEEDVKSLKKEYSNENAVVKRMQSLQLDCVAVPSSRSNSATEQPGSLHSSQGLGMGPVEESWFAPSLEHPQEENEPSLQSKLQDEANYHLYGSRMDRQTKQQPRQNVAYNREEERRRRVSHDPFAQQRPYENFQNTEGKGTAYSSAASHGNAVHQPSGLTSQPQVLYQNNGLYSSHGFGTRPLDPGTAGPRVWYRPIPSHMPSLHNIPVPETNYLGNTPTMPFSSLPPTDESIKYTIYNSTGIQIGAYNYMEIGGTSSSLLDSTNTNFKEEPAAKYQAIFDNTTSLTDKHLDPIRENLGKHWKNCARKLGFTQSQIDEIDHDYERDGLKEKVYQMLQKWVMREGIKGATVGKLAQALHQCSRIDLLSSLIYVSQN

Regarding `CN1CC(F)(C#Cc2ccc3c(c2)N(C)C(=O)[C@@H](NC(=O)c2cc(Oc4ccccc4)ccn2)CO3)C1` [Compound I-146], the 50% inhibitory concentration (IC50) is 0.4 nM in the test with U937 cells (setting [1]), 18.3 nM in the test on L929 cells (setting [2]) and 17.3 nM at RIPK1.

`CN1CCC2(CC1)CCN(c1ccc3c(c1)N(C)C(=O)[C@@H](NC(=O)c1cc(Oc4ccccc4)ccn1)CO3)CC2` [II-27, (S)—N-(5-Methyl-7-(9-methyl-3,9-diazaspiro[5.5]undecan-3-yl)-4-oxo-2,3,4,5-tetrahydrobenzo[b][1,4]oxazepin-3-yl)-4-phenoxypicolinamide]: the values for the IC50 in the test with U937 cells (setting [3]), with L929 cells (setting [4]) and at RIPK1 were 63.3 nM, 10400 nM and 27.9 nM, respectively.

Take `CN1C(=O)[C@@H](NC(=O)c2ncn(Cc3ccc(-c4ccccc4)cc3)n2)COc2ccc(C#CC(C)(C)O)cc21` [Compound I-83, (S)-1-([1,1′-biphenyl]-4-ylmethyl)-N-(7-(3-hydroxy-3-methylbut-1-yn-1-yl)-5-methyl-4-oxo-2,3,4,5-tetrahydrobenzo[b][1,4]oxazepin-3-yl)-1H-1,2,4-triazole-3-carboxamide]: the IC50 was 1 nM with U937 cells (setting [3]), 0.1 nM with L929 cells (setting [5]) and 66.4 nM on RIPK1.

On to `CN1C(=O)[C@@H](NC(=O)c2cc(Oc3ccccc3)ccn2)COc2ccc(C#CC(C)(C)N)cc21` [Compound I-167, (S)—N-(7-(3-amino-3-methylbut-1-yn-1-yl)-5-methyl-4-oxo-2,3,4,5-tetrahydrobenzo[b][1,4]oxazepin-3-yl)-4-phenoxypicolinamide hydrochloride], for which the IC50 was 5.3 nM with U937 cells (read-out: U937 Zvad TNF CTG Recovery, U937, TNFa + zVAD (IC50), U937 cells, TNFa + zVAD, hydrochloride); 1210 nM in the test with L929 cells (read-out: L929-CTG-recovery, L929, TNFa + zVAD (IC50), L929 cells, TNFa + zVAD, hydrochloride); 17.5 nM on RIPK1 (hydrochloride).

On to `CCOC(=O)CCc1ccc2c(c1)N(C)C(=O)[C@@H](NC(=O)c1n[nH]c(Cc3ccccc3)n1)CO2` [Compound I-1, Ethyl (S)-3-(3-(5-benzyl-1H-1,2,4-triazole-3-carboxamido)-5-methyl-4-oxo-2,3,4,5-tetrahydrobenzo[b][1,4]oxazepin-7-yl)propanoate], for which the IC50 in the test with U937 cells (setting [3]) was determined as 2.7 nM; in the test on L929 cells (setting [5]), 2360 nM; on RIPK1, 19 nM.

As to `CN1C(=O)[C@@H](NC(=O)c2cc(Oc3ccccc3)ccn2)COc2ccc(C#CC3(OC(=O)CCC(=O)O)COC3)cc21` [Compound I-147, (S)-4-((3-((5-methyl-4-oxo-3-(4-phenoxypicolinamido)-2,3,4,5-tetrahydrobenzo[b][1,4]oxazepin-7-yl)ethynyl)oxetan-3-yl)oxy)-4-oxobutanoic acid], the IC50 worked out at 1.2 nM in the test with U937 cells (setting [3]); 154 nM in the test with L929 cells (L929 cells, TNFa + zVAD, read-out: L929-CTG-recovery, L929, TNFa + zVAD (IC50)); 17.3 nM on RIPK1.

`CN1C(=O)[C@@H](NC(=O)c2cc(Oc3ccc(F)cc3)ccn2)COc2ccc(C#CC(C)(C)CO)cc21` [Compound I-148, (S)-4-(4-fluorophenoxy)-N-(7-(4-hydroxy-3,3-dimethylbut-1-yn-1-yl)-5-methyl-4-oxo-2,3,4,5-tetrahydrobenzo[b][1,4]oxazepin-3-yl)picolinamide]: the IC50 in the test with U937 cells (setting [3]) amounted to 5.2 nM; in the test with L929 cells (setting [5]), 359 nM; at RIPK1, 33.7 nM.

Consider `CN1C(=O)[C@@H](NC(=O)c2cc(Oc3ccccc3)ccn2)COc2ccc(C#CCN3CCOCC3)cc21` [Compound I-117, (S)—N-(5-methyl-7-(3-morpholinoprop-1-yn-1-yl)-4-oxo-2,3,4,5-tetrahydrobenzo[b][1,4]oxazepin-3-yl)-4-phenoxypicolinamide], for which the IC50 with U937 cells (setting [3]) was found to be 0.2 nM; with L929 cells (setting [5]) it was 11.2 nM; on RIPK1, 31.6 nM.

Turning to `CN1C(=O)[C@@H](NC(=O)c2nnc(C3(c4ccccc4)CC3)o2)COc2ccc(N3CC4(CCOCC4)C3)cc21` [Compound I-235, (S)—N-(5-methyl-4-oxo-7-(7-oxa-2-azaspiro[3.5]nonan-2-yl)-2,3,4,5-tetrahydrobenzo[b][1,4]oxazepin-3-yl)-5-(1-phenylcyclopropyl)-1,3,4-oxadiazole-2-carboxamide], the values for the IC50 in the test on U937 cells (setting [3]), with L929 cells (setting [4]) and on RIPK1 were 13.2 nM, 1070 nM and 62.1 nM, respectively.

In the case of `CN1C(=O)[C@@H](NC(=O)c2cc(Oc3ccc(F)cc3)ccn2)COc2ccc(C#CC(C)(C)O)cc21` [Compound I-100, (S)-4-(4-fluorophenoxy)-N-(7-(3-hydroxy-3-methylbut-1-yn-1-yl)-5-methyl-4-oxo-2,3,4,5-tetrahydrobenzo[b][1,4]oxazepin-3-yl)picolinamide], the IC50 with U937 cells (setting [3]) was 8.3 nM; in the test with L929 cells (setting [5]), 263 nM; at RIPK1, 39.2 nM.

For `CN1C(=O)[C@@H](NC(=O)c2cc(Oc3cccc(F)c3)ccn2)COc2ccc(C#CC3(O)COC3)cc21` [Compound I-115, (S)-4-(3-fluorophenoxy)-N-(7-((3-hydroxyoxetan-3-yl)ethynyl)-5-methyl-4-oxo-2,3,4,5-tetrahydrobenzo[b][1,4]oxazepin-3-yl)picolinamide], the IC50 came out at 0.8 nM in the test on U937 cells (setting [3]), 49.1 nM with L929 cells (setting [5]) and 24 nM at RIPK1.

In the case of `CN1C(=O)[C@@H](NC(=O)c2cc(Oc3ccccc3F)ccn2)COc2ccc(C#CC(C)(C)O)cc21` [Compound I-103, (S)-4-(2-fluorophenoxy)-N-(7-(3-hydroxy-3-methylbut-1-yn-1-yl)-5-methyl-4-oxo-2,3,4,5-tetrahydrobenzo[b][1,4]oxazepin-3-yl)picolinamide], the results for the 50% inhibitory concentration (IC50) in the test on U937 cells (setting [3]), with L929 cells (setting [5]) and on RIPK1 were 1.5 nM, 67.4 nM and 49 nM, respectively.

As for `Cc1cccc(C)c1Cn1cnc(C(=O)N[C@H]2COc3ccc(C#CC(C)(C)C)cc3N(C)C2=O)n1` [Compound I-90, (S)-1-(2,6-dimethylbenzyl)-N-(7-(3,3-dimethylbut-1-yn-1-yl)-5-methyl-4-oxo-2,3,4,5-tetrahydrobenzo[b][1,4]oxazepin-3-yl)-1H-1,2,4-triazole-3-carboxamide], the values for the IC50 in the test with U937 cells (setting [3]), in the test with L929 cells (setting [5]) and on RIPK1 were 9.1 nM, 4.6 nM and 365 nM, respectively.

Take `CC(C)N1CC(O)(C#Cc2ccc3c(c2)N(C)C(=O)[C@@H](NC(=O)c2cc(Oc4ccccc4)ccn2)CO3)C1` [Compound I-195, (S)—N-(7-((3-hydroxy-1-isopropylazetidin-3-yl)ethynyl)-5-methyl-4-oxo-2,3,4,5-tetrahydrobenzo[b][1,4]oxazepin-3-yl)-4-phenoxypicolinamide]: the concentration for half-maximal inhibition (IC50) with U937 cells (setting [1]) stood at 1.1 nM; in the test on L929 cells (setting [2]) it was 268 nM; on RIPK1 it was 15.3 nM.

Regarding `COC(=O)C(C)(C)C#Cc1ccc2c(c1)N(C)C(=O)[C@@H](NC(=O)c1n[nH]c(Cc3ccccc3)n1)CO2` [Compound I-76, methyl (S)-4-(3-(5-benzyl-1H-1,2,4-triazole-3-carboxamido)-5-methyl-4-oxo-2,3,4,5-tetrahydrobenzo[b][1,4]oxazepin-7-yl)-2,2-dimethylbut-3-ynoate], the IC50 in the test on U937 cells (setting [3]) is 18.1 nM; with L929 cells (setting [5]), 2.4 nM; at RIPK1, 44.9 nM.

For `CN1C(=O)[C@@H](NC(=O)n2cc(Cc3ccc(F)cc3)cn2)COc2ccc(C#CC3(O)CCOCC3)cc21` [Compound I-175, (S)-4-(4-fluorobenzyl)-N-(7-((4-hydroxytetrahydro-2H-pyran-4-yl)ethynyl)-5-methyl-4-oxo-2,3,4,5-tetrahydrobenzo[b][1,4]oxazepin-3-yl)-1H-pyrazole-1-carboxamide], the IC50 is 9 nM in the test on U937 cells (setting [3]), 107 nM in the test with L929 cells (setting [5]) and 27.8 nM on RIPK1.

`CC(C)[C@H](N)C(=O)OC1(C#Cc2ccc3c(c2)N(C)C(=O)[C@@H](NC(=O)c2cc(Oc4ccccc4)ccn2)CO3)COC1` [Compound I-160, 3-(((S)-5-methyl-4-oxo-3-(4-phenoxypicolinamido)-2,3,4,5-tetrahydrobenzo[b][1,4]oxazepin-7-yl)ethynyl)oxetan-3-yl L-valinate]: the IC50 was 0.9 nM with U937 cells (setting [3]), 44.2 nM in the test with L929 cells (setting [5]) and 25.3 nM on RIPK1.

Regarding `C[C@H](N)C(=O)OCC(C)(C)C#Cc1ccc2c(c1)N(C)C(=O)[C@@H](NC(=O)c1cc(Oc3ccccc3)ccn1)CO2` [Compound I-142, 2,2-dimethyl-4-((S)-5-methyl-4-oxo-3-(4-phenoxypicolinamido)-2,3,4,5-tetrahydrobenzo[b][1,4]oxazepin-7-yl)but-3-yn-1-yl L-alaninate], the values for the IC50 in the test on U937 cells (setting [3]), in the test with L929 cells (setting [5]) and on RIPK1 were 1.4 nM, 77.3 nM and 24.2 nM, respectively.

Regarding `CN1C(=O)[C@@H](NC(=O)c2cc(OC3CCC3)ccn2)COc2ccc(C#CC(C)(C)O)cc21` [Compound I-152, (S)-4-cyclobutoxy-N-(7-(3-hydroxy-3-methylbut-1-yn-1-yl)-5-methyl-4-oxo-2,3,4,5-tetrahydrobenzo[b][1,4]oxazepin-3-yl)picolinamide], the IC50 with U937 cells (setting [3]) came to 39.1 nM; with L929 cells (setting [5]), 2510 nM; at RIPK1, 10.3 nM.

What is called IC50 is the concentration needed to halve the response being measured.
